Columns and labels:
[1] = tested on: DNFB-induced allergic dermatitis; assay: murine DNFB-induced allergic dermatitis model; type: in vivo, mouse
Method: The model is produced by repeating antigen sensitization and induction in mouse to induce contact dermatitis that involves increase of IgE antibody titer, i.e., inflammation similar to atopic dermatitis (J. Allergy Clin. Immunol., 100 (6Pt2), 39-44, December 1997).
Furthermore, by dilution, 0.1 mg/mL and 0.01 mg/mL suspensions were prepared. In addition, as positive controls, 0.5 mg/mL, 0.2 mg/mL and 0.1 mg/mL solutions of prednisolone (Sigma) were similarly prepared.
During the period from the next day of the third antigen application to the next day of the fifth antigen application, 10 mL/kg of the above-described test compound was administered once a day 15 times in total.
The difference of thickness was used as an index of swelling. FIGS. 1 and 2 show the results of the measurement at the fourth and fifth antigen applications, together with the results of the positive controls.
24 hours after the fifth antigen application, the spleen was harvested from the mouse exsanguinated under anesthesia with ether. The wet weight of the spleen was measured.

[2] = tested on: IgE-dependent allergic dermatitis; details: mouse, in vivo
Method: Using a triphase dermatitis model that can be induced by antigen in mouse passively sensitizationed with IgE, the actions of CB2 inverse agonist and CB2 agonist were examined.
*Animal: 8 to 10 weeks-old Female BALB/c mouse (Japan SLC Inc.) was used.
Preparation of solvent: MC was dissolved in distilled water to prepare an aqueous 0.5% MC solution.
Anti-DNP IgE (antibody against DNP; Yamasa Corp.) was prepared to 15 μg/mL with physiological saline. 0.2 mL of the resulting solution was given through the caudal vein to the mouse.
Antigen preparation: 0.15% (w/v) of DNFB (2,4-dinitrofluorobenzene) was prepared in a mixed solution of acetone and olive oil (3:1, v/v) on needed basis.
Antigen application: 25 μl of the antigen solution was applied on each side of both of the ears 24 hours after the administration of the anti-DNP IgE.
From the next day of the antigen application to day 8 after the antigen application, 10 mL/kg test compound was orally administered once a day 9 times in total. On the day of antigen application, the test compound was administered one hour before the antigen application and the test compound was administered one hour before the measurement of the thickness of the ear on day 8 after the antigen application.
Before and 8 days after the antigen application, the thickness of the ear was measured with a dial thickness gauge (Mitutoyo Corp.). The difference between the value measured before the antigen application and at each time point was used as an index of swelling.
After the measurement of ear swelling, spleen and thymus were harvested to weigh their wet weights.

CCCCCOc1c(OC)ccc2cc(C(=O)NCc3ccc4c(c3)OCO4)c(=O)[nH]c12 [Compound A, N-(benzo[1,3]dioxol-5-ylmethyl)-7-methoxy-2-oxo-8-pentyloxy-1,2-dihydroquinoline-3-carboxamide]
spleen wet weight ([1]; 24 hours after the fifth antigen application, oral dosing): No decrease of spleen weight
ear swelling (increase of the thickness of the ear) ([1]; BALB/c mouse, oral once a day from day after third antigen application, 24 hours after fourth and fifth antigen application): significantly suppressed ear swelling
ear swelling, very late phase [2]: significantly suppressed ear swelling

Reference: patent US20040171613A1, “Therapeutic agent for non-immediate type allergic diseases” (JAPAN TOBACCO INC., priority 2001, published 2004)
